# Experimental data published in US20060063784A1, “Method of using substituted pyrazolo [1,5-a] pyrimidines” (priority 2004, published 2006).
# Where two headings read alike, the source gives them in different places.
# Key:
# [1] = test system: 80S14 (p21-deficient) cells; assay: Cytotoxicity assay using isogenic cell lines: IC50 in 80S14 (p21-deficient) cells, SRB; type: cell-based, human
# Procedure, shortened: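 80S14 (p21-deficient) cells seeded at 12,000 cells/well overnight, then exposed 5 days at 37 °C to serial dilutions (5 pM–50 μM or 170 pg/ml–10 μg/ml). TCA-fixed, sulforhodamine B-stained, absorbance at 560 nm; IC50 taken from cytotoxicity curves versus untreated controls.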
# LoVo Colon cell line = assay: Cytotoxicity assay using LoVo colon cell line, SRB; type: cell-based; conditions: read-out: Inhibition of LoVo
# Method: Cytotoxicity Assay Using LoVo Colon Cell Line: • 1. LoVo Colon cell lines were cultured in RPMI 1640 medium (Gibco/Invitrogen Life Sciences) supplemented with 10% fetal bovine serum (FBS, Gibco) and 50 μg/ml entamicin (Gibco). Cells were maintained at 37° C. under 7% CO2. • 2. Cells were seeded in 96-well microtiter plates (Corning/Costar) in a volume of 0.15 ml of growth medium (4000 cells/well). Plates were incubated at 37° C. overnight (18-24 hours). • 3. Serial dilutions of the test agent were added to each well. Dilutions were prepared in growth medium. One of two dose ranges was used: 5 pM to 20 μM or 170 pg/ml to 10 μg/ml. Cells were incubated with the test compounds for 4 days at 37° C. • 4. Surviving cells were processed using the SRB asay, as described above.
# 5. The drug concentration that inhibits cell proliferation by 50% relative to untreated controls (IC50) was determined from cytotoxicity curves using the LSW Toolbox graphing application.
# [2] = Homo sapiens, 120 h, 80S14 p21-deficient cells, 5 days incubation, SRB, read-out: IC50 for 80SI4
# [3] = Homo sapiens, 96 h, LoVo colon cells, 4 days incubation, SRB
# [4] = Homo sapiens, 80S14, 120 h, read-out: IC50 for 80SI4 (uM)
# [5] = Homo sapiens, 120 h, 80S14 (p21-deficient) cells, 5 days, SRB, class symbols, read-out: IC50 for 80S14
# [6] = 80S14 (p21-deficient) cells, 5 days, SRB, class symbols, read-out: IC50 for 80S14
molecule,measurement,setting,value
"O=C(NCCc1ccccc1)Nc1cccc(-c2ccnc3c(C(=O)c4cccs4)cnn23)c1 [Example 2, N-(2-phenylethyl)-N′-{3-[3-(thien-2-ylcarbonyl)pyrazolo[1,5-a]pyrimidin-7-yl]phenyl}urea]",IC50,[1]; [2],1 to 10 µM
same,IC50,LoVo Colon cell line; [3],100 to 1000 nM
"O=C(Nc1cccc(-c2ccnc3c(C(=O)c4cccs4)cnn23)c1)NC1CCCCC1 [Example 3, N-cyclohexyl-N′-{3-[3-(thien-2-ylcarbonyl)pyrazolo[1,5-a]pyrimidin-7-yl]phenyl}urea]",IC50,[1]; [2],< 1 µM
same,IC50,LoVo Colon cell line; [3],< 100 nM
"CCCCOC(=O)Nc1cccc(-c2ccnc3c(C(=O)c4cccs4)cnn23)c1 [Example 13, butyl 3-[3-(thien-2-ylcarbonyl)pyrazolo[1,5-a]pyrimidin-7-yl]phenylcarbamate]",IC50,[1]; [4],< 1 µM
same,IC50,"LoVo Colon cell line; Homo sapiens, LoVo, 96 h",< 100 nM
"C=CCOC(=O)Nc1cccc(-c2ccnc3c(C(=O)c4cccs4)cnn23)c1 [Example 14, allyl 3-[3-(thien-2-ylcarbonyl)pyrazolo[1,5-a]pyrimidin-7-yl]phenylcarbamate]",IC50,[1]; [4],< 1 µM
same,IC50,"LoVo Colon cell line; Homo sapiens, LoVo, 96 h",< 100 nM
"CC(C)(C)COC(=O)Nc1cccc(-c2ccnc3c(C(=O)c4cccs4)cnn23)c1 [Example 17, neopentyl 3-[3-(thien-2-ylcarbonyl)pyrazolo[1,5-a]pyrimidin-7-yl]phenylcarbamate]",IC50,[1]; [2],< 1 µM
same,IC50,LoVo Colon cell line; [3],< 100 nM
O=C(Nc1cccc(-c2ccnc3c(C(=O)c4cccs4)cnn23)c1)OCCCl [Example 22],IC50,"[1]; 80S14 p21-deficient cells, 5 days incubation, SRB, read-out: IC50 for 80SI4",< 1 µM
same,IC50,"LoVo Colon cell line; LoVo colon cells, 4 days incubation, SRB",< 100 nM
"CCOC(=O)Nc1cccc(-c2ccnc3c(C(=O)c4cccs4)cnn23)c1 [Example 25, ethyl 3-[3-(thien-2-ylcarbonyl)pyrazolo[1,5-a]pyrimidin-7-yl]phenylcarbamate]",IC50,[1]; [4],< 1 µM
same,IC50,"LoVo Colon cell line; Homo sapiens, LoVo, 96 h",< 100 nM
"O=C(Nc1cccc(-c2ccnc3c(C(=O)c4cccs4)cnn23)c1)OCCCCCl [Example 26, 4-chlorobutyl 3-[3-(thien-2-ylcarbonyl)pyrazolo[1,5-a]pyrimidin-7-yl]phenylcarbamate]",IC50,[1]; [2],< 1 µM
same,IC50,LoVo Colon cell line; [3],< 100 nM
"C=C(C)C(=O)Nc1cccc(-c2ccnc3c(C(=O)c4cccs4)cnn23)c1 [Example 44, 2-methyl-N-{3-[3-(thien-2-ylcarbonyl)pyrazolo[1,5-a]pyrimidin-7-yl]phenyl}acrylamide]",IC50,LoVo Colon cell line; [3],< 100 nM
"CN(C)C(=O)Nc1cccc(-c2ccnc3c(C(=O)c4cccs4)cnn23)c1 [Example 46, N,N-dimethyl-N′-{3-[3-(thien-2-ylcarbonyl)pyrazolo[1,5-a]pyrimidin-7-yl]phenyl}urea]",IC50,[1]; [2],1 to 10 µM
same,IC50,LoVo Colon cell line; [3],1000 to 2000 nM
"O=C(Nc1cccc(-c2ccnc3c(C(=O)c4cccs4)cnn23)c1)c1cccs1 [Example 51, N-{3-[3-(thien-2-ylcarbonyl)pyrazolo[1,5-a]pyrimidin-7-yl]phenyl}thiophene-2-carboxamide]",IC50,[1]; [2],< 1 µM
same,IC50,LoVo Colon cell line; [3],< 100 nM
"CC12CCC(C(=O)Nc3cccc(-c4ccnc5c(C(=O)c6cccs6)cnn45)c3)(OC1=O)C2(C)C (stereo not shown) [Example 54, 4,7,7-trimethyl-3-oxo-N-{3-[3-(thien-2-ylcarbonyl)pyrazolo[1,5-a]pyrimidin-7-yl]phenyl}-2-oxabicyclo[2.2.1]heptane-1-carboxamide]",IC50,[1]; [2],< 1 µM
same,IC50,LoVo Colon cell line; [3],< 100 nM
"CC(C)(C)CC(=O)Nc1cccc(-c2ccnc3c(C(=O)c4cccs4)cnn23)c1 [Example 55, 3,3-dimethyl-N-{3-[3-(thien-2-ylcarbonyl)pyrazolo[1,5-a]pyrimidin-7-yl]phenyl}butanamide]",IC50,[1]; [4],< 1 µM
same,IC50,"LoVo Colon cell line; Homo sapiens, LoVo, 96 h",< 100 nM
"CC(C)CCC(=O)Nc1cccc(-c2ccnc3c(C(=O)c4cccs4)cnn23)c1 [Example 56, 4-methyl-N-{3-[3-(thien-2-ylcarbonyl)pyrazolo[1,5-a]pyrimidin-7-yl]phenyl}pentanamide]",IC50,[1]; [4],< 1 µM
same,IC50,"LoVo Colon cell line; Homo sapiens, LoVo, 96 h",< 100 nM
"O=C(CC1CC1)Nc1cccc(-c2ccnc3c(C(=O)c4cccs4)cnn23)c1 [Example 72, 2-cyclopropyl-N-{3-[3-(thien-2-ylcarbonyl)pyrazolo[1,5-a]pyrimidin-7-yl]phenyl}acetamide]",IC50,[1]; [2],< 1 µM
same,IC50,LoVo Colon cell line; [3],100 to 1000 nM
"O=C(CC1CCCCC1)Nc1cccc(-c2ccnc3c(C(=O)c4cccs4)cnn23)c1 [Example 74, 2-cyclohexyl-N-{3-[3-(thien-2-ylcarbonyl)pyrazolo[1,5-a]pyrimidin-7-yl]phenyl}acetamide]",IC50,[1]; [2],< 1 µM
same,IC50,LoVo Colon cell line; [3],< 100 nM
"O=C(Nc1cccc(-c2ccnc3c(C(=O)c4cccs4)cnn23)c1)c1cnc[nH]1 [Example 415, N-{3-[3-(Thien-2-ylcarbonyl)pyrazolo[1,5-a]pyrimidin-7-yl]phenyl}-1H-imidazole-5-carboxamide]",IC50,[1]; [5],< 1 µM
"O=C(Nc1cccc(-c2ccnc3c(C(=O)c4cccs4)cnn23)c1)OCc1ccncc1 [Example 416, Pyridin-4-ylmethyl 3-[3-(thien-2-ylcarbonyl)pyrazolo[1,5-a]pyrimidin-7-yl]phenylcarbamate]",IC50,[1]; [5],< 1 µM
"CCCC(C)CNc1cccc(-c2ccnc3c(C(=O)c4cccs4)cnn23)c1 (stereo not shown) [Example 418, (7-{3-[(2-Methylpentyl)amino]phenyl}pyrazolo[1,5-a]pyrimidin-3-yl)(thien-2-yl)methanone]",IC50,[1]; [5],1 to 10 µM
"CN(C)c1ccc(-c2ccnc3c(C(=O)c4cccs4)cnn23)cc1NC(=O)c1ccncc1 [Example 428, N-{2-(Dimethylamino)-5-[3-(thien-2-ylcarbonyl)pyrazolo[1,5-a]pyrimidin-7-yl]phenyl}isonicotinamide]",IC50,[1]; [5],1 to 10 µM
"O=C(c1cccs1)c1cnn2c(-c3cccc(-c4ccc(CN5CCOCC5)cc4)c3)ccnc12 [Example 459, {7-[4′-(Morpholin-4-ylmethyl)-1,1′-biphenyl-3-yl]pyrazolo[1,5-a]pyrimidin-3-yl}(thien-2-yl)methanone]",IC50,[1]; [5],< 1 µM
"CN1CCN(Cc2ccc(-c3cccc(-c4ccnc5c(C(=O)c6cccs6)cnn45)c3)cc2)CC1 [Example 460, (7-{4′-[(4-Methylpiperazin-1-yl)methyl]-1,1′-biphenyl-3-yl}pyrazolo[1,5-a]pyrimidin-3-yl)(thien-2-yl)methanone]",IC50,[1]; [5],< 1 µM
"CC(C)CC(=O)Nc1cccc(-c2ccnc3c(-c4cccc(CN(C)C)c4)cnn23)c1 [Example 497, N-[3-(3-{3-[(Dimethylamino)methyl]phenyl}pyrazolo[1,5-a]pyrimidin-7-yl)phenyl]-3-methylbutanamide]",IC50,[1]; [5],10 to 50 µM
"Cc1cc(C)cc(-c2cnn3c(-c4cccc(-c5nnn(CCN6CCCC6)n5)c4)ccnc23)c1 [Example 498, 3-(3,5-Dimethylphenyl)-7-{3-[2-(2-pyrrolidin-1-ylethyl)-2H-tetrazol-5-yl]phenyl}pyrazolo[1,5-a]pyrimidine]",IC50,[1]; [5],1 to 10 µM
"Cc1cc(C)cc(-c2cnn3c(-c4cccc(-c5nnn(CCN6CCCCC6)n5)c4)ccnc23)c1 [Example 499, 3-(3,5-Dimethylphenyl)-7-{3-[2-(2-piperidin-1-ylethyl)-2H-tetrazol-5-yl]phenyl}pyrazolo[1,5-a]pyrimidine]",IC50,[1]; [5],1 to 10 µM
"N,N′-diethyl-3-[3-(2-thienylcarbonyl)-pyrazolo[1,5-a]pyrimidin-7-yl]-benzamide [Example 248]",IC50,[1]; [6],10 to 50 µM
"N-{3-[3-(2-Thienylcarbonyl)pyrazolo[1,5-a]pyrimidin-7-yl]phenyl}-3-trifluoromethyl)benzamide [Example 281]",IC50,[1]; [6],< 1 µM
"tert-Butyl 4-[({3-[3-[3-(thien-2-ylcarbonyl)pyrazolo[1,5-a]pryimidin-7-yl]phenyl}amino)carbonyl]piperidine-1-carboxylate [Example 405]",IC50,[1]; [6],1 to 10 µM
